Laboratory results reported in ChEMBL document CHEMBL6134780, “Halogenated retinoid derivatives as dual RARα and RXRα modulators for treating acute promyelocytic leukemia cells” (Eur J Med Chem, 2024).
Calls of active or inactive are those of the source. The rule behind the calls is not given here.

Legend:
NB-4 [1] = experiment: Cell cycle arrest in human NB4 cells assessed as accumulation of cells at G0/G1 phase at 0.5 uM incubated for 24 hrs by DAPI staining based flow cytometric analysis (reference value: 48 %); assay type: functional
NB-4 [2] = experiment: Cell cycle arrest in human NB4 cells assessed as accumulation of cells at G2/M phase at 2 uM incubated for 6 hrs by DAPI staining based flow cytometric analysis (reference value: 21 %); assay type: functional
[3] = Cell cycle arrest in human ATRA-resistant NB4-LR2 cells assessed as accumulation of cells at G2/M phase at 1 uM incubated for 24 hrs by DAPI staining based flow cytometric analysis (reference value: 25 %); assay type: functional
NB-4 [4] = experiment: Cell cycle arrest in human NB4 cells transfected with pLVX-shPML-RARalpha plasmid assessed as accumulation of cells at sub-G1 phase at 2 uM incubated for 12 hrs by DAPI staining based flow cytometric analysis (reference value: 21 %); assay type: functional
Homo sapiens = species on record: Homo sapiens; experiment: Binding affinity to N-terminal His-tagged human RARalpha LBD R276E mutant extracted from Escherichia coli BL21 (DE3) cells by ITC analysis
[5] = Cell cycle arrest in human ATRA-resistant NB4-LR2 cells assessed as accumulation of cells at sub-G1 phase at 2 uM incubated for 6 hrs by DAPI staining based flow cytometric analysis (reference value: 9 %); assay type: functional
NB-4 [6] = experiment: Induction of apoptosis in human NB4 cells assessed as late apoptotic cells at 1 uM incubated for 24 hrs by Annexin V-FITC/PI staining based flow cytometric analysis (reference value: 2.23 %); assay type: functional
[7] = Cell cycle arrest in human ATRA-resistant NB4-LR2 cells assessed as accumulation of cells at sub-G1 phase at 0.5 uM incubated for 24 hrs by DAPI staining based flow cytometric analysis (reference value: 12 %); assay type: functional
NB-4 [8] = experiment: Cell cycle arrest in human NB4 cells transfected with pLVX-shRNA2-negative control assessed as accumulation of cells at sub-G1 phase at 2 uM incubated for 12 hrs by DAPI staining based flow cytometric analysis (reference value: 4 %); assay type: functional
[9] = Induction of apoptosis in human ATRA-resistant NB4-LR2 cells assessed as early apoptotic cells at 1 uM incubated for 24 hrs by Annexin V-FITC/PI staining based flow cytometric analysis (reference value: 1.41 %); assay type: functional
NB-4 [10] = experiment: Cell cycle arrest in human NB4 cells transfected with pLVX-shRXRalpha plasmid assessed as accumulation of cells at sub-G1 phase at 2 uM incubated for 12 hrs by DAPI staining based flow cytometric analysis (reference value: 10 %); assay type: functional
[11] = Cell cycle arrest in human ATRA-resistant NB4-LR2 cells assessed as accumulation of cells at S phase at 2 uM incubated for 24 hrs by DAPI staining based flow cytometric analysis (reference value: 21 %); assay type: functional
NB-4 [12] = experiment: Cell cycle arrest in human NB4 cells transfected with pLVX-shRXRalpha plasmid assessed as accumulation of cells at G0/G1 phase at 1 uM incubated for 12 hrs by DAPI staining based flow cytometric analysis (reference value: 53 %); assay type: functional
NB-4 [13] = experiment: Cell cycle arrest in human NB4 cells transfected with pLVX-shPML-RARalpha plasmid assessed as accumulation of cells at S phase at 2 uM incubated for 12 hrs by DAPI staining based flow cytometric analysis (reference value: 19 %); assay type: functional
NB-4 [14] = experiment: Cell cycle arrest in human NB4 cells assessed as accumulation of cells at sub-G1 phase at 2 uM incubated for 12 hrs by DAPI staining based flow cytometric analysis (reference value: 3 %); assay type: functional
[15] = Cell cycle arrest in human ATRA-resistant NB4-LR2 cells assessed as accumulation of cells at G0/G1 phase at 2 uM incubated for 6 hrs by DAPI staining based flow cytometric analysis (reference value: 57 %); assay type: functional
[16] = Cell cycle arrest in human ATRA-resistant NB4-LR2 cells assessed as accumulation of cells at G2/M phase at 2 uM incubated for 12 hrs by DAPI staining based flow cytometric analysis (reference value: 15 %); assay type: functional
NB-4 [17] = experiment: Cell cycle arrest in human NB4 cells assessed as accumulation of cells at G0/G1 phase at low concentration by DAPI staining based flow cytometric analysis; assay type: functional
ATRA-resistant NB4-LR2 = experiment: Cell cycle arrest in human ATRA-resistant NB4-LR2 cells assessed as accumulation of cells at G2/M phase at 2 uM incubated for 3 to 12 hrs by DAPI staining based flow cytometric analysis; assay type: functional; details: time 3-12 hrs

| Activity (Homo sapiens) | Structure (SMILES) | Activity (NB-4 [1]) [%] | Activity (NB-4 [2]) [%] | Activity [3] [%] | Activity (NB-4 [4]) [%] | Activity [5] [%] | Activity (NB-4 [6]) [%] | Activity [7] [%] | Activity (NB-4 [8]) [%] | Activity [9] [%] | Activity (NB-4 [10]) [%] | Activity [11] [%] | Activity (NB-4 [12]) [%] | Activity (NB-4 [13]) [%] | Activity (NB-4 [14]) [%] | Activity [15] [%] | Activity [16] [%] | Activity (NB-4 [17]) | Activity (ATRA-resistant NB4-LR2) |
| --- | --- | --- | --- | --- | --- | --- | --- | --- | --- | --- | --- | --- | --- | --- | --- | --- | --- | --- | --- |
| inactive | Cc1cc2c(cc1C(=O)/C(Br)=C/c1ccc(C(=O)O)cc1)C(C)(C)CCC2(C)C | 59 | 40 | 30 | 27 | 22 | 18.68 | 18 | 7 | 27.7 | 12 | 22 | 36 | 11 | 4 | 45 | 22 |  |  |
|  | Cc1cc2c(cc1C(=O)/C(Br)=C\c1ccc(C(=O)O)cc1)C(C)(C)CCC2(C)C |  |  |  |  |  |  |  |  |  |  |  |  |  |  |  |  | Active | Active |
